# Assay results published in PMC7354492, “Drugs Commonly Applied to Kidney Patients May Compromise Renal Tubular Uremic Toxins Excretion” (Toxins, 2020).
# Counter-ions that a name gives are not always drawn. Like-named read-outs stand apart in the source and are kept apart here.
# T1: OAT1 (Homo sapiens, UniProt Q4U2R8)
# T1 sequence (Q4U2R8 1-563): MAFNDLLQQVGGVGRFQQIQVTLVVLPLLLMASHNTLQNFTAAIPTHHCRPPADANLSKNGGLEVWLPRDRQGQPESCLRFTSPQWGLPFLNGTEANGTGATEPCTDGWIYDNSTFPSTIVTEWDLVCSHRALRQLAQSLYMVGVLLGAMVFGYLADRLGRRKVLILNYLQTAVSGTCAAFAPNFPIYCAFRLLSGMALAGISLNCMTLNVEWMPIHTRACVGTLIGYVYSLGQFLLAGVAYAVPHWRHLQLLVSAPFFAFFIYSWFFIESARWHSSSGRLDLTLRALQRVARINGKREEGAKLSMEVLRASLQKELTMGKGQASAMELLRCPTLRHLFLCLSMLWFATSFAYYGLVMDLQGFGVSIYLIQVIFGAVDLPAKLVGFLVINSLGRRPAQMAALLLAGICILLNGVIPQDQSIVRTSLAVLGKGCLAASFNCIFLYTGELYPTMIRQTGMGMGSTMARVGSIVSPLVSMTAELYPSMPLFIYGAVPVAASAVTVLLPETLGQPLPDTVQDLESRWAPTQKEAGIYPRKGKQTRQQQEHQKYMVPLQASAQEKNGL
# Tests used:
# [1] = Human clearance and half life of tested drugs; assay type: in vivo
# [2] = cited from earlier work
# [3] = cited from earlier work; for T1/2 (pharmacologic half life): ref 44 (pravastatin: ref 45)
# plasma proteins = details: cited from earlier work; for Protein Binding (%): ref www.drugbank.ca; for bound to plasma proteins: PBUTs in plasma, ref 68 (IS, PCS), ref 69 (KA)
# OAT1 [4] = details: read-out: IC50 (uric acid uptake, OAT1); OAT1-expressing Flp-HEK293 cells; ref Sato et al. [58]; cited from earlier work
# OAT1 [5] = biological target: T1, OAT1; test: OAT1-mediated fluorescein uptake inhibition assay in ciPTEC-OAT1; details: for lowest drug concentration with statistically significant decrease (p<0.05) of % fluorescein uptake, with IS: co-incubation with IS; for lowest drug concentration with statistically significant decrease (p<0.05) of % fluorescein uptake, with IS / lowest drug concentration with statistically significant decrease (p<0.05) of % fluorescein uptake, with KA / lowest drug concentration with statistically significant decrease (p<0.05) of % fluorescein uptake, with PCS: reference = toxin alone; for lowest drug concentration with statistically significant decrease (p<0.05) of % fluorescein uptake, with KA: co-incubation with KA; for lowest drug concentration with statistically significant decrease (p<0.05) of % fluorescein uptake, with PCS: co-incubation with PCS; for IC50 at 10 min: human, ciPTEC-OAT1 mature monolayers, pH 7.4, probe fluorescein 1 µM
# OAT1 [6] = biological target: T1, OAT1; details: read-out: IC50 of uremic toxin in ciPTEC-OAT1 system; cited from earlier work
# [7] = substrate: O=C1OC2(c3ccc(O)cc3Oc3cc(O)ccc32)c2ccccc21; test: cells, lysate or membranes; details: pH 7.4; 37.0 °C
# [8] = co-incubation with UTox, lowest drug concentration
Renal Clearance (% of Total CL) [1],IC50 (OAT1 [5]),Molecule,Therapeutic Concentrations ([2]; ref 44 (pravastatin: ref 45)),Renal CL ([3]; human),T1/2 (pharmacologic half life) [3],Protein Binding (%) (plasma proteins),other results
29%,11.5 ± 3.5 µM,"CCCCC(=O)N(Cc1ccc(-c2ccccc2-c2nnn[nH]2)cc1)[C@H](C(=O)O)C(C)C [Valsartan, valsartan]",2 to 14 µM,0.14 mL/min/kg,6–9 h,94–97%,IC50 (OAT1 [4]): 16 µM; Percentage (%) Fluorescein Uptake at the Lowest Drug Concentration in the presence of UTox (OAT1 [5]): 24.7 ± 4.5%
97%,888 ± 198 µM,CN/C(=N/CCSCc1nc[nH]c1C)NC#N [Cimetidine],1 to 16 µM,7.9 mL/min/kg,1.5–4 h,20%,–
–,2020 ± 465 µM,"C[C@H](CS)C(=O)N1CCC[C@H]1C(=O)O [Captopril, captopril]",0.2 to 5 µM,–,–,–,–
–,–,"O=C(O)c1cc(=O)c2ccccc2[nH]1 [Kynurenic acid, kynurenic acid]",–,–,–,–,bound to plasma proteins (plasma proteins): 70%
45%,13.8 ± 8.5 µM,"CC[C@H](C)C(=O)O[C@H]1C[C@H](O)C=C2C=C[C@H](C)[C@H](CC[C@@H](O)C[C@@H](O)CC(=O)O)[C@H]21 [Pravastatin, pravastatin]",0.08 to 0.3 µM,6.3 mL/min/kg,1–2.5 h,60%,"Therapeutic Concentrations ([2]; second value in cell): 0.43 µM; lowest drug concentration with statistically significant decrease (p<0.05) of % fluorescein uptake, with IS (OAT1 [5]): 5 µM; lowest drug concentration with statistically significant decrease (p<0.05) of % fluorescein uptake, with KA (OAT1 [5]): 5 µM; lowest drug concentration with statistically significant decrease (p<0.05) of % fluorescein uptake, with PCS (OAT1 [5]): 1 µM; Percentage (%) Fluorescein Uptake at the Lowest Drug Concentration in the presence of UTox (OAT1 [5]; [8]): 27.8 ± 2.6%; IC50 at 10 min (OAT1 [5]): 23.2 ± 8.3 µM"
13%,–,"CCC(C)(C)C(=O)O[C@H]1C[C@@H](C)C=C2C=C[C@H](C)[C@H](CC[C@@H]3C[C@@H](O)CC(=O)O3)[C@H]21 [Simvastatin, simvastatin]",–,–,2 h,–,–
–,–,"Cc1ccc(OS(=O)(=O)O)cc1 [p-Cresylsulfate, p-cresylsulfate]",–,–,–,–,IC50 (OAT1 [6]): 79 ± 14 µM; bound to plasma proteins (plasma proteins): 90–95%
–,–,"NS(=O)(=O)c1cc(C(=O)O)c(NCc2ccco2)cc1Cl [Furosemide, furosemide]",6 to 30 µM,–,–,–,–
–,–,"Cc1ccc(O[C@@H]2O[C@H](C(=O)O)[C@@H](O)[C@H](O)[C@H]2O)cc1 [p-Cresylglucuronide, p-cresylglucuronide]",–,–,–,–,IC50 (OAT1 [6]): 2650 ± 922 µM
–,–,O=S(=O)(O)Oc1c[nH]c2ccccc12 [Indoxyl sulfate],–,–,–,–,bound to plasma proteins (plasma proteins): 90–95%
11%,8.6 ± 2.5 µM,"CCCCc1nc(Cl)c(CO)n1Cc1ccc(-c2ccccc2-c2nn[nH]n2)cc1 [Losartan, losartan]",0.5 to 1.5 µM,0.9 mL/min/kg,1.5–2 h,99%,"IC50 (OAT1 [4]): 12 µM; lowest drug concentration with statistically significant decrease (p<0.05) of % fluorescein uptake, with IS (OAT1 [5]): 1 µM; lowest drug concentration with statistically significant decrease (p<0.05) of % fluorescein uptake, with KA (OAT1 [5]): 5 µM; lowest drug concentration with statistically significant decrease (p<0.05) of % fluorescein uptake, with PCS (OAT1 [5]): 1 µM; Percentage (%) Fluorescein Uptake at the Lowest Drug Concentration in the presence of UTox (OAT1 [5]; [8]): 23.5 ± 3.5%; IC50 at 10 min (OAT1 [5]): 3.1 ± 0.7 µM"
–,–,"O=C(O)[C@H]1O[C@@H](Oc2c[nH]c3ccccc23)[C@H](O)[C@@H](O)[C@@H]1O [Indoxyl-β-D-glucoronide, indoxyl-β-D-glucoronide]",–,–,–,–,IC50 (OAT1 [6]): 492 ± 68 µM
100%,–,"C[C@H](N[C@@H](CCc1ccccc1)C(=O)O)C(=O)N1CCC[C@H]1C(=O)O [Enalaprilate, enalaprilate]",0.04 to 0.4 µM,1.6 mL/min/kg,8–11 h,50%,Total CL ([3]; human): 1.6 mL/min/kg; inhibition of human OAT1 (in words) (OAT1 [5]; captopril and enalaprilate only at high concentrations with no therapeutic relevance): inhibited
–,–,OAT1 (Homo sapiens) (protein) MAFNDLLQQVGGVGRFQQIQVTLVVLPLLLMASHNTLQNFTAAIPTHHCRPPADANLSKNGGLEVWLPRDRQGQPESCLRFTSPQWGLPFLNGTEANGTGATEPCTDGWIYDNSTFPSTIVTEWDLVCSHRALRQLAQSLYMVGVLLGAMVFGYLADRLGRRKVLILNYLQTAVSGTCAAFAPNFPIYCAFRLLSGMALAGISLNCMTLNVEWMPIHTRACVGTLIGYVYSLGQFLLAGVAYAVPHWRHLQLLVSAPFFAFFIYSWFFIESARWHSSSGRLDLTLRALQRVARINGKREEGAKLSMEVLRASLQKELTMGKGQASAMELLRCPTLRHLFLCLSMLWFATSFAYYGLVMDLQGFGVSIYLIQVIFGAVDLPAKLVGFLVINSLGRRPAQMAALLLAGICILLNGVIPQDQSIVRTSLAVLGKGCLAASFNCIFLYTGELYPTMIRQTGMGMGSTMARVGSIVSPLVSMTAELYPSMPLFIYGAVPVAASAVTVLLPETLGQPLPDTVQDLESRWAPTQKEAGIYPRKGKQTRQQQEHQKYMVPLQASAQEKNGL,–,–,–,–,Km [7]: 0.93 ± 0.09 µM

Molecule,Renal Clearance (% of Total CL) [1],IC50 (OAT1 [5]),Therapeutic Concentrations ([2]; ref 44 (pravastatin: ref 45)),Renal CL ([3]; human),T1/2 (pharmacologic half life) [3],Protein Binding (%) (plasma proteins),other results
"NCCCC[C@H](N[C@@H](CCc1ccccc1)C(=O)O)C(=O)N1CCC[C@H]1C(=O)O [Lisinopril, lisinopril]",100%,–,0.01 to 0.16 µM,–,–,negligible,–
